Results on 23 compounds are retold here after PMC8074287, “Analgesic and Anticancer Activity of Benzoxazole Clubbed 2-Pyrrolidinones as Novel Inhibitors of Monoacylglycerol Lipase” (Molecules, 2021).

Like-named read-outs stand apart in the source and are kept apart here.

One data set concerns MAGL. The note with it: cited from earlier work.
In a further data set the target is T1, hMAGL (Homo sapiens, UniProt Q99685).
T1 sequence (Q99685 1-303): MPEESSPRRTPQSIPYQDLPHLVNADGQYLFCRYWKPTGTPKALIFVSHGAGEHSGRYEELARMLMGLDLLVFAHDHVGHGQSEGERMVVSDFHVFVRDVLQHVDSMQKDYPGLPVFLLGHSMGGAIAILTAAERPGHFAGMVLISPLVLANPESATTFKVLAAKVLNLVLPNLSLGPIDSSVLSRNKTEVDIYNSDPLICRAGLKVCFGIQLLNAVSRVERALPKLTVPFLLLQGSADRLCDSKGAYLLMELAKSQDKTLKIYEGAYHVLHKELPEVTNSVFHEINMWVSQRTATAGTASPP
The data set is described as follows: Human MAGL inhibition assay (Cayman's assay kit).

The target in the next data set is T2, hFAAH (Homo sapiens, UniProt O00519).
T2 sequence (O00519 1-579): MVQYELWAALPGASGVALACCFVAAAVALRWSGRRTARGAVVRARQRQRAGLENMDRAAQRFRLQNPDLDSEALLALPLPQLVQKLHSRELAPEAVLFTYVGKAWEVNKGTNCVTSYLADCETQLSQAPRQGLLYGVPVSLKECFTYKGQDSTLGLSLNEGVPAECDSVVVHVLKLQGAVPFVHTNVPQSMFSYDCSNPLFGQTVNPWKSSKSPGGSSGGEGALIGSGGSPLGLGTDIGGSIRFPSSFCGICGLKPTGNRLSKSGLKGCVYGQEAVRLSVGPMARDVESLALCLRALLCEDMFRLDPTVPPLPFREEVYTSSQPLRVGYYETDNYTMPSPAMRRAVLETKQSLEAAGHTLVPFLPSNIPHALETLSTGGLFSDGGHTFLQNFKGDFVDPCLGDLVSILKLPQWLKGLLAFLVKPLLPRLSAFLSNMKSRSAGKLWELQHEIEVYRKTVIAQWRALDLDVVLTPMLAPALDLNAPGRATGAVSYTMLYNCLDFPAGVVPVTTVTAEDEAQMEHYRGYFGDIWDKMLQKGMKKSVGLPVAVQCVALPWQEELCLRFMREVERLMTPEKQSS
The experiment in a line: Human FAAH inhibition assay (Cayman's assay kit). The note with it: IC50, mean ± SEM (n = 3).

In the next data set the test system is FAAH. The arrangement: method as in PMID 15456244. The note with it: read-out: FAAH IC50, value reported; cited from earlier work.
For data set [1], the system named is formalin-induced nociception. The data set is described as follows: Formalin-induced analgesic (nociception) test. It is filed as in vivo, Male Wistar rats. The note with it: 100 mg/kg i.p., 30 min before formalin. The source says: The formalin-induced analgesic test is an extensively acknowledged animal nociception model. In order to evaluate both central and peripheral effects of the compound (20), formalin-induced nociception model was selected for analgesic activity. The formalin induced behavioral response comprises two typical phases, stage I and II. Stage I persists up to five minutes after formalin injection and is characterized by acute pain with vigorous licking and biting of the injected site. Stage I consists the action formalin on afferent C-fiber nociceptors. While Stage II starts 10–30 min after formalin injection and persists till 60 min, characterized by periodic licking and biting of the injected site. Stage II imitates the action of central sensitization of the spinal dorsal horn neurons.
Figure 5 Formalin-induced analgesic test; a dose of the test compound 20 (5, 10, 30, and 50 mg/kg, p.o, suspended in 0.5% CMC) was administered 4 h before formalin injection (50 µL, 2.5%). Reference drug, gabapentin (100 mg/kg, i.p, dissolved in 0.9% normal saline) was injected 30 min before formalin injection. Total paw licking and biting duration, Stage I (white bar, 0–5 min) and stage II (black bar, 10–30 min) was recorded as a measure of pain behavior. Data is represented as mean ± SEM from a group of 10 animals. * p < 0.05, ** p < 0.01, p > 0.05 (NS, nonsignificant) vs. control (vehicle). GBP: Gabapentin; D5, D10, D30, andD50 are the dose concentrations of test compound 20.
Male Wistar rats (180–200 g) were obtained with the permission of IAEC (proposal number 1048) from Jamia Hamdard, New Delhi, India. The results of test compound 20 and reference drug, Gabapentin (GBP), were statistically compared with the control group.

The mark [2] stands for this setting: earlier work of the authors' group.

As for `O=C(N1CCN(C(c2ccccc2)c2ccccc2)CC1)n1nnc2ccccc21` [ML30], in the data set on MAGL, the IC50 is 0.54 nM.
Turning to `O=C(N1CCN(C(c2ccc(F)cc2)c2ccc(F)cc2)CC1)n1cncn1` [SAR629], in the data set on MAGL, the IC50 is 1.1 nM.
For the compound `CCCCNC(=O)Oc1ccc(C2=NCCS2)cc1` [SPB01403], the IC50 in the data set with MAGL was 31000 nM.
In general, melting point refers to the temperature, or range, at which the solid turns liquid. In turn, `O=C1CC(c2nc3ccccc3o2)CN1c1ccc(F)c(Cl)c1` (centres unmarked) [Compound 16, 4-(Benzo[d]oxazol-2-yl)-1-(3-chloro-4-fluorophenyl)pyrrolidin-2-one] returned a melting point of 187 to 189 °C. In addition, the IC50 at hMAGL amounted to 34 ± 1.7 nM. Moreover, the IC50 at hFAAH was found to be 25000 ± 2300 nM.
Take `O=C(O[C@H](CO)C(F)(F)F)N1C[C@@H]2C(c3ccn(-c4ccc(F)cc4)n3)[C@@H]2C1` (some centres unmarked) [PF-06795071]: the IC50 in the data set with MAGL was 3 nM.
As for `COc1ccc(N2CC(c3nc4ccccc4o3)CC2=O)cc1` (centres unmarked) [Compound 18, 4-(Benzo[d]oxazol-2-yl)-1-(4-methoxyphenyl)pyrrolidin-2-one], the melting point is 177 to 179 °C. The compound further gave an IC50 against hMAGL of 42 ± 1.5 nM. On hFAAH, this compound returned an IC50 of 37000 ± 2200 nM.
With `O=C(Oc1ccc([N+](=O)[O-])cc1)N1CCC(C(O)(c2ccc3c(c2)OCO3)c2ccc3c(c2)OCO3)CC1` [JZL184], the IC50 in the data set on MAGL is […].
The compound `O=C1CC(c2nc3ccccc3o2)CN1c1ccc(Cl)cc1` (centres unmarked) [Compound 15, 4-(Benzo[d]oxazol-2-yl)-1-(4-chlorophenyl)pyrrolidin-2-one] yielded a melting point of 174 to 176 °C. Further, the IC50 at hMAGL is 65 ± 3.2 nM. At hFAAH, this compound registered an IC50 of 28000 ± 1800 nM.
As for `O=C(Cn1nnc2ccccc21)Nc1ccc(-c2nc3ccccc3s2)cc1` [ZINC24092691 analogue], the IC50 in the data set with MAGL (setting [2]) was 6.5 nM.
On to `O=C(Nc1cccc(-c2ccccc2)c1)OC1CCCCC1` [URB602], for which the IC50 in the data set with MAGL is 28000 nM.
On to `O=C(Cn1nnc2ccccc21)Nc1ccc(-c2nc3ccccc3s2)cc1` [ZINC24092691], for which the IC50 in the data set with MAGL (setting [2]) is 10 nM.
Consider `O=C(OC(C(F)(F)F)C(F)(F)F)N1CCC(C(O)(c2ccc3c(c2)OCO3)c2ccc3c(c2)OCO3)CC1` [KML29], for which, in the data set with MAGL, the IC50 was 3.6 nM and the “selectivity for MAGL over FAAH” value is on record as “more than 10,000 fold”.
Take `O=C(N1CCC(C(c2ccc3c(c2)OCO3)c2ccc3c(c2)OCO3)CC1)n1cncn1` [JJKK-048, {4-[bis-(benzo[d][1,3]dioxol-5-yl)methyl]-piperidin-1-yl}(1H-1,2,4-triazol-1-yl)methanone]: in the data set on MAGL, the IC50 is 0.363 nM and the “selectivity for MAGL over FAAH” value is “more than 10,000 fold”.
For `Cc1ccccc1N1CC(c2nc3ccccc3o2)CC1=O` (centres unmarked) [Compound 13, 4-(Benzo[d]oxazol-2-yl)-1-(o-tolyl)pyrrolidin-2-one], the melting point lay within 162 to 164 °C. This compound also registered an IC50 on hMAGL of 85000 ± 1500 nM.
On to `NC(=O)c1cccc(-c2cccc(OC(=O)NC3CCCCC3)c2)c1` [URB597], for which the IC50 in the data set on FAAH was 4.6 nM.
Regarding `Cc1ccc(N2CC(c3nc4ccccc4o3)CC2=O)cc1` (centres unmarked) [Compound 14, 4-(Benzo[d]oxazol-2-yl)-1-(p-tolyl)pyrrolidin-2-one], the melting point fell in the range of 164 to 166 °C. The compound also registered an IC50 against hMAGL of 72000 ± 2100 nM.
For `NCC1(CC(=O)O)CCCCC1` [GBP, Gabapentin, reference compound], in data set [1] (vs control), the “paw licking and biting, Stage II” value is “significant reduction of paw licking and biting”. Also, the “analgesic effect, Stage I (acute nociception)” value in data set [1] (vs control (0.5% CMC)) is listed as “little analgesic effects”.
In the case of `O=C1CC(c2nc3ccccc3o2)CN1c1ccccc1` (centres unmarked) [Compound 12, 4-(Benzo[d]oxazol-2-yl)-1-phenylpyrrolidin-2-one], the melting point is 148 to 150 °C. This compound had an IC50 at hMAGL of more than 100000 nM.
Compound `O=C1CC(c2nc3ccccc3o2)CN1c1ccc(O)cc1` (centres unmarked) [Compound 17, 4-(Benzo[d]oxazol-2-yl)-1-(4-hydroxyphenyl)pyrrolidin-2-one] came in with a melting point of 242 to 245 °C. Further, on hMAGL, the IC50 came to 62000 ± 2700 nM.
`O=C1CC(c2nc3ccccc3o2)CN1Cc1ccccc1` (centres unmarked) [Compound 11, 4-(Benzo[d]oxazol-2-yl)-1-benzylpyrrolidin-2-one] displayed a melting point of 160 to 162 °C. At hMAGL, this compound came in with an IC50 of more than 100000 nM.
As to `COc1nn(-c2ccc(NC(=O)OCc3ccccc3)c(C)c2)c(=O)o1` [CAY10499, reference compound], the IC50 in the data set on MAGL is 144 nM; at hMAGL (read-out: hMAGL, IC50, mean ± SEM (n = 3)) it was 415 ± 3.2 nM.
`Cc1ncccc1-c1cc(F)cc(N2C[C@H](N3CCN(c4ncccn4)CC3)CC2=O)c1` [R(3t)]: in the data set on MAGL, the IC50 is 3.6 nM.
`COc1ccc(N2CC(c3nc4ccccc4[nH]3)CC2=O)cc1` (centres unmarked) [compound 25]: in the data set on MAGL (setting [2]), the IC50 was 9.4 nM.
